A word on the pEC50: it is the negative decadic logarithm of the EC50, by convention in mol/L.

In this test the target is T1, mutant form of the human GPR119 receptor (Homo sapiens, UniProt Q8TDV5, S329A/T327A).
T1 construct: expressed in transfected cells
T1 sequence (Q8TDV5 with tags, fused parts or gaps T327A/S329A): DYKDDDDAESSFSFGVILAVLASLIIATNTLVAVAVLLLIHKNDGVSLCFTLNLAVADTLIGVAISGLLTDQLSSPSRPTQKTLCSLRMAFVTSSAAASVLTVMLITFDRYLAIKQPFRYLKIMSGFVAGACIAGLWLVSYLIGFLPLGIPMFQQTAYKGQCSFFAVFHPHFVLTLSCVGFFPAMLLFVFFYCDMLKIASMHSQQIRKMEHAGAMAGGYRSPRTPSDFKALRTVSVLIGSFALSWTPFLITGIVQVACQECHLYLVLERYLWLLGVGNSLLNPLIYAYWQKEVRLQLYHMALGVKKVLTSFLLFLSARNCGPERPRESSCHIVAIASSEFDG
Put plainly: LANCE cAMP-384 assay in HEK293 cells stably expressing a mutant form of the human GPR119 receptor. In kind it is cell-based. The settings on record: cAMP accumulation, GPR119 stable HEK293 cells, LANCE kit, 20 min at 37° C. Here is the method: Quantitative detection of cAMP accumulation from cells expressing human GPR119 receptor is achieved using Perkin Elmer's LANCE cAMP-384 Kit (Cat#AD0264) according to the manufacturer's protocol. Briefly, HEK293 cells stably expressing a mutant form of the human GPR119 receptor as assay tool (Methionine 1 replaced with the amino acid sequence […], and T327 & S329 changed to alanines; SEQ ID No. 1) are grown to 50-70% confluency in cell culture media (DMEM, 10% heat inactivated Fetal Bovine Serum, 50 I.U./mL penicillin, 50 μg/mL streptomycin, 10 mM HEPES, 20 μg/mL G418 Sulfate). On the day of the assay, GPR119 stable HEK293 cells are lifted from the tissue culture plate and 1000 cells/well are incubated along with various concentrations of test compounds for 20 min at 37° C. Detection Buffer (50 mM HEPES, 10 mM calcium chloride, 0.35% Triton X-100, 1 mg/mL BSA) containing cAMP-specific antibody is then added to all wells and allowed to equilibrate in the dark for 10 minutes at room temperature. Upon equilibration, Detection Buffer containing europium-labeled cAMP tracer complex is added to all wells and allowed to react for 1 hour at room temperature. After 1 hour, bound europium-labeled cAMP tracer is measured using a Perkin Elmer Envision plate reader. The quantity of cAMP generated in each well is derived from a standard curve. EC50 is determined using nonlinear regression analysis of the cAMP values over a range of agonist concentration (12 points spanning the range from 30 μM to 100 pM).
On the technique in general: TR-FRET usually uses a lanthanide donor and a delayed reading to cut background.

pEC50: −log10 of the molar value.

For `Cc1ncnn1-c1ccc(C(=O)N(C2CC2)[C@H]2CCN(c3ccc(C(F)(F)F)cn3)C[C@H]2F)cn1` (single isomer, unassigned) [Example 69], the pEC50 is 6.30. As for `Cc1nnnn1-c1ccc(C(=O)N(C2CC2)[C@H]2CCN(c3ccc(C(F)(F)F)cn3)C[C@H]2F)cn1` (single isomer, unassigned) [Example 70], the figure is 6.90; as for `O=C(c1cnc(-n2cncn2)cn1)N(C1CC1)[C@H]1CCN(c2ccc(C(F)(F)F)cn2)C[C@H]1F` (single isomer, unassigned) [Example 71], 7.03; as for `Cc1nccn1-c1ncc(C(=O)N(C2CC2)[C@H]2CCN(c3ccc(C(F)(F)F)cn3)C[C@H]2F)cn1` (single isomer, unassigned) [Example 72], 7.25. For `Cc1nccn1-c1ccc(C(=O)N(C2CC2)[C@H]2CCN(c3ccc(C(F)(F)F)cn3)C[C@H]2F)cn1` (single isomer, unassigned) [Example 73], the negative logarithm of the EC50 (pEC50) is 6.41. `Cc1ncn(-c2cnc(C(=O)N(C3CC3)[C@H]3CCN(c4ccc(C(F)(F)F)cn4)C[C@H]3F)cn2)n1` (single isomer, unassigned) [Example 74] had a pEC50 of 6.39. Consider `Cc1nccn1-c1cnc(C(=O)N(C2CC2)[C@H]2CCN(c3ccc(C(F)(F)F)cn3)C[C@H]2F)cn1` (single isomer, unassigned) [Example 75], for which the pEC50 is 6.47. As for `Cc1ncnn1-c1ccc(C(=O)N(C2CC2)[C@@H]2CCN(c3ccc(C(F)(F)F)cn3)C[C@@H]2F)cn1` (single isomer, unassigned) [Example 76], the figure is 7.34; as for `Cc1nnnn1-c1ccc(C(=O)N(C2CC2)[C@@H]2CCN(c3ccc(C(F)(F)F)cn3)C[C@@H]2F)cn1` (single isomer, unassigned) [Example 77], 7.89; as for `O=C(c1cnc(-n2cncn2)cn1)N(C1CC1)[C@@H]1CCN(c2ccc(C(F)(F)F)cn2)C[C@@H]1F` (single isomer, unassigned) [Example 78], 8.05. In turn, `O=C(c1cnc(-n2cncn2)nc1)N(C1CC1)[C@@H]1CCN(c2ccc(C(F)(F)F)cn2)C[C@@H]1F` (single isomer, unassigned) [Example 80] had a pEC50 of 6.95. `Cc1nccn1-c1ccc(C(=O)N(C2CC2)[C@@H]2CCN(c3ccc(C(F)(F)F)cn3)C[C@@H]2F)cn1` (single isomer, unassigned) [Example 81]: the negative logarithm of the EC50 (pEC50) is 7.47.

As to `Cc1ncn(-c2cnc(C(=O)N(C3CC3)[C@@H]3CCN(c4ccc(C(F)(F)F)cn4)C[C@@H]3F)cn2)n1` (single isomer, unassigned) [Example 82], the pEC50 was 7.46.

`Cc1nccn1-c1cnc(C(=O)N(C2CC2)[C@@H]2CCN(c3ccc(C(F)(F)F)cn3)C[C@@H]2F)cn1` (single isomer, unassigned) [Example 83] showed a pEC50 of 7.92. `CCc1cnc(N2CC[C@@H](N(C(=O)c3ccc(-n4ncnc4C)nc3)C3CC3)[C@@H](F)C2)nc1` (single isomer, unassigned) [Example 84]: the pEC50 is 7.82.

In turn, `CCc1cnc(N2CC[C@@H](N(C(=O)c3ccc(-n4nnnc4C)nc3)C3CC3)[C@@H](F)C2)nc1` (single isomer, unassigned) [Example 85] gave a pEC50 of 7.70. `CCc1cnc(N2CC[C@@H](N(C(=O)c3cnc(-n4cncn4)cn3)C3CC3)[C@@H](F)C2)nc1` (single isomer, unassigned) [Example 86] had a pEC50 of 8.30. As for `CCc1cnc(N2CC[C@@H](N(C(=O)c3cnc(-n4ccnc4C)nc3)C3CC3)[C@@H](F)C2)nc1` (single isomer, unassigned) [Example 87], the pEC50 was 8.40.

For `CCc1cnc(N2CC[C@@H](N(C(=O)c3ccc(-n4ccnc4C)nc3)C3CC3)[C@@H](F)C2)nc1` (single isomer, unassigned) [Example 88], the negative-log EC50 (pEC50) was 7.54. Regarding `CCc1cnc(N2CC[C@@H](N(C(=O)c3cnc(-n4cnc(C)n4)cn3)C3CC3)[C@@H](F)C2)nc1` (single isomer, unassigned) [Example 89], the negative logarithm of the EC50 (pEC50) is 7.74. For `CCc1cnc(N2CC[C@@H](N(C(=O)c3cnc(-n4ccnc4C)cn3)C3CC3)[C@@H](F)C2)nc1` (single isomer, unassigned) [Example 90], the negative logarithm of the EC50 (pEC50) is 7.36. As for `CCc1cnc(N2CC[C@@H](N(C(=O)c3cnc(-n4cncn4)nc3)C3CC3)[C@@H](F)C2)nc1` (single isomer, unassigned) [Example 91], the figure is 6.69. To `CCc1cnc(N2CC[C@@H](N(C(=O)c3cnc(-n4cncn4)cn3)C3CC3)[C@@H](F)C2)nc1` (single isomer, unassigned) [Example 92] belongs 6.22; to `Cc1ncnn1-c1ccc(C(=O)N(C2CC2)[C@@H]2CCN(c3ncc(Cl)cn3)C[C@@H]2F)cn1` (single isomer, unassigned) [Example 93], 7.62. On to `Cc1nnnn1-c1ccc(C(=O)N(C2CC2)[C@@H]2CCN(c3ncc(Cl)cn3)C[C@@H]2F)cn1` (single isomer, unassigned) [Example 94], for which the negative logarithm of the EC50 (pEC50) was 8.10. The compound `Cc1nccn1-c1ncc(C(=O)N(C2CC2)[C@@H]2CCN(c3ncc(Cl)cn3)C[C@@H]2F)cn1` (single isomer, unassigned) [Example 95] gave a negative logarithm of the EC50 (pEC50) of 8.15.

For the compound `O=C(c1cnc(-n2cncn2)nc1)N(C1CC1)[C@@H]1CCN(c2ncc(Cl)cn2)C[C@@H]1F` (single isomer, unassigned) [Example 96], the pEC50 is 7.19. To `Cc1nccn1-c1ccc(C(=O)N(C2CC2)[C@@H]2CCN(c3ncc(Cl)cn3)C[C@@H]2F)cn1` (single isomer, unassigned) [Example 97] belongs 7.49; to `Cc1ncn(-c2cnc(C(=O)N(C3CC3)[C@@H]3CCN(c4ncc(Cl)cn4)C[C@@H]3F)cn2)n1` (single isomer, unassigned) [Example 98], 7.85. As to `Cc1nccn1-c1cnc(C(=O)N(C2CC2)[C@@H]2CCN(c3ncc(Cl)cn3)C[C@@H]2F)cn1` (single isomer, unassigned) [Example 99], the pEC50 is 7.74.

In turn, `Cc1ncnn1-c1ncc(C(=O)N(C2CC2)[C@@H]2CCN(c3ncc(Cl)cn3)C[C@@H]2F)cn1` (single isomer, unassigned) [Example 100] gave a pEC50 of 6.87. Compound `Cc1nccn1-c1ncc(C(=O)N(C2CC2)[C@@H]2CCN(c3ncc(C(F)(F)F)cn3)C[C@@H]2F)cn1` (single isomer, unassigned) [Example 101] had a pEC50 of 8.30. As to `O=C(c1cnc(-n2cncn2)nc1)N(C1CC1)[C@@H]1CCN(c2ncc(C(F)(F)F)cn2)C[C@@H]1F` (single isomer, unassigned) [Example 102], the negative-log EC50 (pEC50) is 7.30.

Regarding `Cc1ncnn1-c1ncc(C(=O)N(C2CC2)[C@@H]2CCN(c3ccc(C(F)(F)F)cn3)C[C@@H]2F)cn1` (single isomer, unassigned) [Example 103], the negative-log EC50 (pEC50) was 6.41. For the compound `CCc1cnc(N2CC[C@@H](N(C(=O)c3cn(-c4ccc(C#N)cn4)cn3)C3CC3)[C@@H](F)C2)nc1` (single isomer, unassigned) [Example 107], the pEC50 is 6.73. To `CCc1cnc(N2CC[C@@H](N(C(=O)c3cn(-c4ccc(S(C)(=O)=O)cc4F)cn3)C3CC3)[C@@H](F)C2)nc1` (single isomer, unassigned) [Example 108] belongs 7.09.

(Values after patent US8921398B2 (Boehringer Ingelheim International GmbH, priority 2011, dated 2014).)
